Measured values from patent publication US7507716B2, “Method for treating pain with prolactin antagonists” (Board of Regents, The University of Texas System, priority 2005, dated 2009).

B1: PRL: Ovine PRL [oPRL-21, BIO] provided by NHPP; prolactin polypeptide hormone (protein, UniProt P01240 31-229, looked up)
Prolactin: TPVCPNGPGNCQVSLRDLFDRAVMVSHYIHNLSSEMFNEFDKRYAQGKGFITMALNSCHTSSLPTPEDKEQAQQTHHEVLMSLILGLLRSWNDPLYHLVTEVRGMKGVPDAILSRAIEIEEENKRLLEGMEMIFGQVIPGAKETEPYPVWSGLPSLQTKDEDARHSAFYNLLHCLRRDSSKIDTYLKLLNCRIIYNNNC

Tests used:
PRL-R = assay: Western blot of PRL-R isoforms in TG of OVX rats; format: in vivo, rat; conditions: TG of OVX rats, 2, 20 or 80 μg/kg s.c. daily for 10 days
From the text: There are two isoforms of the rat PRL receptor (PRL-R) that differ in the length of their cytoplasmic tail and are therefore termed the long and short isoforms. […] Moreover, the differential expression of these receptors is regulated by estrogen in certain tissues (Sakaguchi et al., 1994; Pi et al., 2003). To determine whether estrogen regulates the expression of the PRL-R in the female TG, protein extracts prepared from TG of OVX rats and subjected to Western blot analysis using an anti-PRL-R antibody that recognizes both the long and the short PRL-R isoforms. FIG. 3A depicts a representative immunoblot of this experiment. The antibody recognized two bands migrating at approximately 100 KDa and 40 KDa corresponding to the long and short PRL-R isoforms respectively. Blots were stripped and probed with an antibody against beta-actin to normalize for loading differences. […] The data are presented as mean±SEM (n=4/group, *=p<0.05 and **=p<0.01; one-way ANOVA with Bonferroni's post hoc test).
At the end of the 10th day, animals were used for behavioral experiments or sacrificed by decapitation and the TG of each individual animal were harvested. Harvested tissue was used for RNA isolation, total protein isolation, or for preparing primary cultures of TG neurons. […]

TRPV1 = TRPV1 phosphorylation (32P incorporation, immunoprecipitation); format: cell-based, rat; conditions: PRL 40 nM 10 min
Procedure: The activity of TRPV1 is dependent upon its phosphorylation status. Hyperphosphorylation of TRPV1 is associated with increased responsiveness to capsaicin (Bhave et al., 2003; Mohapatra and Nau, 2005; Zhang et al., 2005; Mandadi et al., 2006). Since PRL-signaling through PRL-R is known to activate various intracellular kinases pathways, the effect of PRL on TRPV1 phosphorylation status in cultured TG neurons was assessed. Cultured TG neurons were incubated with PRL (40 nM) or vehicle for 10 min in the presence of radioactive phosphate (P^32-orthophosphate). Extracts of the radiolabelled TG cultures were prepared and subjected to immunoprecipated using an antibody that specifically recognizes TRPV1, and the resulting immune complexes were resolved by SDS-PAGE and prepared for immunoblot analysis. The blots were subjected to autoradiography to visualize radiolabelled P^32-TRPV1 and to determine its relative abundance in the presence of PRL. The resolved protein was then immunoblotted using an antibody raised against TRPV1 to ensure that the observed differences in radiolabelled TRPV1 abundance are not due to technical errors (e.g., unequal gel loading). […]
Autoradiography and Western blot results were scanned and quantified using NIH Image 1.62. […]

Molecule | expression of the long form of PRL-R (PRL-R) | expression of the short form of the PRL-R (PRL-R) | TRPV1 phosphorylation status (TRPV1; TG neurons from OVX rats) | phosphorylation state of TRPV1 (TRPV1; neurons from intact female rats) [%]
C[C@]12CC[C@@H]3c4ccc(O)cc4CC[C@H]3[C@@H]1CC[C@@H]2O [estradiol, 17-β-estradiol] | increases expression of the long form of PRL-R in the TG of OVX rats in a dose-dependent manner | does not appear to significantly affect expression of the short form of the PRL-R | – | –
B1 | – | – | no observable effect | 150±13
